These results are taken from BindingDB's records for doi:10.3109/14756366.2013.823958 (Birla Institute of Technology, 2014).

For the assay, the target named is T1, Secreted chorismate mutase (Mycobacterium tuberculosis (strain ATCC 25618 / H37Rv), UniProt P9WIB9).
T1 sequence (P9WIB9 whole entry): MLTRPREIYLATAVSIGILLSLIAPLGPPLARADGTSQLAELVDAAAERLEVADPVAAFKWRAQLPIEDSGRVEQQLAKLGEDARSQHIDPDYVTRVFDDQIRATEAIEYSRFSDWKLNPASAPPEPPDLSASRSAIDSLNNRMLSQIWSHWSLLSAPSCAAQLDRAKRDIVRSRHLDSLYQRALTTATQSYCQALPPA
As to the kind of experiment: CM Assay. The conditions noted are these: pH 7.5; 37 °C. The protocol: Reaction volumes of 0.4 mL of chorismate (typically, 1 mM) in 50 mM Tris-HCl (pH 7.5), 0.5 mM EDTA, 0.1 mg/mL bovine serum albumin, and 10 mM β-mercaptoethanol were incubated at 37 °C for 5 min. The reaction was started with 5 pmol of MTB CM in a 10-μl volume (i.e. 185 ng of MTB CM equivalent toa 12.5nM final concentration of the dimer based on the molecular mass of 36 948 Da). The reaction was allowed to proceed at 37 °C and was terminated after 1 min to 5 min with 0.4 ml of 1N HCl. After a further incubation at 37 °C for 10 min to convert prephenate, which is formed in the enzymatic reaction, tophenylpyruvate, 0.8 ml of 2.5N NaOH was added. The absorbance of the phenylpyruvate chromophore was read at 320 nm. We set up a blank with no enzyme for every reaction to account for the non-enzymatic conversion of chorismate to prephenate and added the enzyme after NaOH addition. The A320 for the blank varied from 0.1 to 0.3, depending on the concentration of chorismate and duration of the reaction. Each reaction was carried out in triplicates.
Consider `CC(=O)Oc1cc(C)ccc1C(C)C` [Thymol derivative, 17], for which inhibition was half-maximal at 4.08 µM (IC50). This lies in the single-digit micromolar range.

Turning to `Cc1ccc(C(C)C)cc1O`, the IC50 (in general, the concentration at which inhibition is half-maximal) turned out to be 1.06 µM. Against the preceding molecule, the IC50 is about 3.8-fold lower.

`Cc1cc(O)cc(C(C)C)c1` [Carvacrol derivative, 7] yielded an IC50 of 26.8 µM.

The molecule `Cc1ccc(C(C)C)c(O)c1` [5-methyl-2-(propan-2-yl)phenol] displayed an IC50 of 28.4 µM.

`CC1CCC(C(C)C)C(O)C1` (stereo not drawn) [Menthol] came in with an IC50 of 26.4 µM.

As to `C=C(C)C1CCC(C)CC1O` (stereo not drawn) [(±)Neo isopulegol], 13.6 µM corresponded to half-maximal inhibition (IC50). Compared with the last molecule, the IC50 is about 1.9-fold lower.

Molecule `CC(C)c1cccc(O)c1` [Carvacrol derivative, 10] registered a half-inhibitory concentration (IC50) of 21.4 µM.

In the case of `COc1cc(C=O)ccc1O` [4-hydroxy-3-methoxybenzaldehyde], the IC50 was found to be 24.8 µM.

As for `Cc1ccc(C(C)C)cc1` [Carvacrol derivative, 8], half-maximal inhibition (IC50) required 11.6 µM. This IC50 lies about 2.1-fold lower than the previous one.

`C=CCc1ccc(O)c(OC)c1` [2-methoxy-4-(prop-2-en-1-yl)phenol4-allyl-2-methoxyphenol] showed a half-inhibitory concentration (IC50) of 28.6 µM.

In turn, `COc1cc(C)ccc1C(C)C` [Thymol derivative, 21] yielded an IC50 of 21.6 µM.

Turning to `Cc1ccccc1O` [Carvacrol derivative, 9], the IC50 was found to be 23.1 µM.

The molecule `Cc1cc(Cl)c(C(C)C)cc1O` [Carvacrol derivative, 15] yielded an IC50 of 13.7 µM.
